Values after ≈ are worked out from the molar mass of the structure shown. Active and inactive are the calls of the source. The calls are words filed in the database; no cut-off is given here.
Tests used:
Candida albicans [1] = assay: Reversal of fluconazole mediated azole resistant Candida albicans 904 assessed as upregulation of CDR2 expression at 32 ug/ml by RT-PCR; assay type: functional, organism-based; conditions: dose 32.0 µg/ml
Candida albicans [2] = assay: Reversal of fluconazole mediated azole resistant Candida albicans 904 assessed as upregulation of CDR1 expression at 32 ug/ml by RT-PCR; assay type: functional, organism-based; conditions: dose 32.0 µg/ml
Candida albicans [3] = assay: Fungicidal activity against Candida albicans 904 assessed as colony forming at 4 times MIC incubated for 48 hrs by time-kill curve assay; assay type: functional
Candida albicans [4] = assay: Synergistic antifungal activity against fluconazole-resistant Candida albicans 901 assessed as inhibition of fungal growth in presence of fluconazole by checker board microdilution assay; assay type: functional
Candida albicans [5] = assay: Antibiofilm activity against Candida albicans 904 assessed as inhibition of […] metabolism within the biofilm after 24 hrs by XTT reduction assay; assay type: functional
Candida albicans [6] = assay: Antifungal activity against fluconazole-resistant Candida albicans 904 assessed as inhibition of fungal growth by checker board microdilution assay; assay type: functional
Candida albicans [7] = assay: Synergistic antifungal activity against fluconazole-resistant Candida albicans 100 assessed as inhibition of fungal growth in presence of fluconazole by checker board microdilution assay; assay type: functional
Candida albicans [8] = assay: Antifungal activity against fluconazole-resistant Candida albicans 100 assessed as inhibition of fungal growth by checker board microdilution assay; assay type: functional
Candida albicans [9] = assay: Antifungal activity against fluconazole-resistant Candida albicans 103 assessed as inhibition of fungal growth by checker board microdilution assay; assay type: functional
Candida albicans [10] = assay: Synergistic antifungal activity against fluconazole-resistant Candida albicans 103 assessed as inhibition of fungal growth in presence of fluconazole by checker board microdilution assay; assay type: functional
Candida albicans [11] = assay: Antifungal activity against fluconazole-resistant Candida albicans 632 assessed as inhibition of fungal growth by checker board microdilution assay; assay type: functional
Candida albicans [12] = assay: Antibiofilm activity against Candida albicans 904 assessed as inhibition of […] metabolism within the biofilm after 48 hrs by XTT reduction assay; assay type: functional
Candida albicans [13] = assay: Synergistic antifungal activity against fluconazole-resistant Candida albicans 904 assessed as inhibition of fungal growth in presence of fluconazole by checker board microdilution assay; assay type: functional
Candida albicans [14] = assay: Synergistic antifungal activity against fluconazole-resistant Candida albicans 311 assessed as inhibition of fungal growth in presence of fluconazole by checker board microdilution assay; assay type: functional
Candida albicans [15] = assay: Synergistic antifungal activity against fluconazole-resistant Candida albicans 632 assessed as inhibition of fungal growth in presence of fluconazole by checker board microdilution assay; assay type: functional
Candida albicans [16] = assay: Antifungal activity against fluconazole-resistant Candida albicans 311 assessed as inhibition of fungal growth by checker board microdilution assay; assay type: functional
Candida albicans [17] = assay: Antifungal activity against fluconazole-resistant Candida albicans 901 assessed as inhibition of fungal growth by checker board microdilution assay; assay type: functional

OC(Cn1cncn1)(Cn1cncn1)c1ccc(F)cc1F [FLUCONAZOLE]
Activity (Candida albicans [1]): Active
Activity (Candida albicans [2]): Active
MFC (Candida albicans [3]): > 64 µg/mL
MIC80 (Candida albicans [4]): > 64 µg/mL
MIC50 (Candida albicans [5]): 32 µg/mL (≈ 104 µM)
MIC80 (Candida albicans [6]): > 64 µg/mL
MIC80 (Candida albicans [7]): > 64 µg/mL
MIC80 (Candida albicans [8]): > 64 µg/mL
MIC80 (Candida albicans [9]): 64 µg/mL
MIC80 (Candida albicans [10]): > 64 µg/mL
MIC80 (Candida albicans [11]): > 64 µg/mL
MIC50 (Candida albicans [12]): > 64 µg/mL
MIC80 (Candida albicans [13]): > 64 µg/mL
MIC80 (Candida albicans [14]): > 64 µg/mL
MIC80 (Candida albicans [15]): > 64 µg/mL
MIC80 (Candida albicans [16]): 64 µg/mL
MIC80 (Candida albicans [17]): > 64 µg/mL

Source: ChEMBL document CHEMBL5154804, “Species-Selective Targeting of Fungal Hsp90: Design, Synthesis, and Evaluation of Novel 4,5-Diarylisoxazole Derivatives for the Combination Treatment of Azole-Resistant Candidiasis” (J Med Chem, 2022)
